# Measured values taken from the NIST ThermoML archive (doi:10.1016/j.jct.2009.06.009).
# Several values for one entry are separate records, joined by “and”; a condition that tells them apart may be missing. Identical values can stand only once. Numbers after ± are expanded uncertainties.
# Details: Liquid, Closed cell (Static) method
vapor or sublimation pressure (283.15 K),vapor or sublimation pressure (293.15 K),vapor or sublimation pressure (303.15 K),vapor or sublimation pressure (313.15 K),SMILES
148 ± 2 kPa,208 ± 2 kPa,282 ± 2 kPa,378 ± 2 kPa,CCCC [butane]
638 ± 3 kPa,840 ± 3 kPa,1083 ± 3 kPa,1375 ± 4 kPa,CCC [propane]
3246 ± 9 kPa and 3242 ± 9 kPa,4158 ± 10 kPa and 4162 ± 10 kPa,,,FC(F)F [trifluoromethane]
